{"source": "patent US12582146B2", "about": "“Angiotensin-converting enzyme inhibitor, blood pressure-lowering agent, and beverages and food products” (priority 2019, dated 2026)", "biological_target": "angiotensin-converting enzyme (ACE) (UniProt P12822)", "sequence (P12822 whole entry)": "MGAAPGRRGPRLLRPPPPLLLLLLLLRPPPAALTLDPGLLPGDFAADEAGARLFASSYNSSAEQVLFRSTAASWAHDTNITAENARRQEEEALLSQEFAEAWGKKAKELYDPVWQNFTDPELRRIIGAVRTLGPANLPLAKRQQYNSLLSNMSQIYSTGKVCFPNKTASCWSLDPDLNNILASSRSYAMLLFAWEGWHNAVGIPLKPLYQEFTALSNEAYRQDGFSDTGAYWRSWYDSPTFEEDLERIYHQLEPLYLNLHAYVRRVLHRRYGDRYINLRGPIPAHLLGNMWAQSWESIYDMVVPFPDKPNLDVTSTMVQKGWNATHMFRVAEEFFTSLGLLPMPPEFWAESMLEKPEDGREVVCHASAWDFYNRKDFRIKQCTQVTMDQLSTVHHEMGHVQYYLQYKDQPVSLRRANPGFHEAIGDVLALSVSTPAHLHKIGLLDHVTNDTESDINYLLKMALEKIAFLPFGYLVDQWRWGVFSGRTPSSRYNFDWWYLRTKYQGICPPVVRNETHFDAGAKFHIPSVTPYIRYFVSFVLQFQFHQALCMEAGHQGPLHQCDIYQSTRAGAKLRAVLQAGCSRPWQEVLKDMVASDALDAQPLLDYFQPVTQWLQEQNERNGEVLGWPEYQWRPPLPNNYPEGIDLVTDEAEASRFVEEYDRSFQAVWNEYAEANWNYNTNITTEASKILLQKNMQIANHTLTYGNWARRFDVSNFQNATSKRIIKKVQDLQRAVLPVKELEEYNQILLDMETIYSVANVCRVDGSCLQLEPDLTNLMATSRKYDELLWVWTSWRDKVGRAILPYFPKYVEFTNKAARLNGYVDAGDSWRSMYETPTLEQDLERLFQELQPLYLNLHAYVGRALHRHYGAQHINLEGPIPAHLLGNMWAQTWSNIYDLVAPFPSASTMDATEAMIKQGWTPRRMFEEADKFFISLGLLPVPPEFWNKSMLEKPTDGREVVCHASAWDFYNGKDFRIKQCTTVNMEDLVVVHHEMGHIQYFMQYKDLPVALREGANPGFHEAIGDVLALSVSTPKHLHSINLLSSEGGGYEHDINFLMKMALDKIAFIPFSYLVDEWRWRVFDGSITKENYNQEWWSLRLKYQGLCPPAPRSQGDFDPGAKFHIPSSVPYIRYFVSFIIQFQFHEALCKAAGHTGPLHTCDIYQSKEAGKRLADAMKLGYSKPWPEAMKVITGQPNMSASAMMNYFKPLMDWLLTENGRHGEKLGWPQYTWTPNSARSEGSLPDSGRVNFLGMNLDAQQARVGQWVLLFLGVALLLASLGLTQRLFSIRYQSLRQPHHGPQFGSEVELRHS", "assay": "Test of effect of inhibiting angiotensin-converting enzyme (Hippuryl-His-Leu substrate, hippuric acid measured by HPLC)", "type": "biochemical", "method": "[Test Example 1] Test of Effect of Inhibiting Angiotensin-Converting Enzyme Conducted on Compound (I)\nThe effect of inhibiting an angiotensin-converting enzyme was tested on the compound (I) (sample 1) as explained below.\nA sample solution (sample 1), obtained by suitably dissolving in and diluting with distilled water, and distilled water respectively in an amount of 50 μL were dispensed into test tubes (10 mL). A substrate solution was dispensed respectively in an amount of 250 μL and mixed. The test tubes were preheated in a thermostatic water-tank at 37° C. for 5 minutes. The preheated test tubes were added with an ACE solution in an amount of 100 μL, agitated immediately and brought to react in the thermostatic water-tank at 37° C. for 45 minutes. After the reaction finished, 3% metaphosphate solution in an amount of 3.6 mL was added and agitated to end reaction. The inactivated solution was subjected to HPLC analysis and isolated hippuric acid was measured. Based on a hippuric acid peak area and solid amount (concentration and weighed amount) from the HPLC, an ACE inhibition rate (%) was obtained.\nA substrate solution was prepared to obtain a boric acid buffering solution (pH 8.3) with 8 mM substrate (Hippuryl-His-Leu produced by PEPTIDE INSTITUTE, INC.) and 640 mM sodium chloride. An ACE solution was prepared to obtain a boric acid buffering solution with 30 mU/mL ACE (produced by Sigma-Aldrich Co. LLC).\n<Liquid Chromatography Condition >\nColumn: Wakosil-II 5C18 HG (4.5mm I.D.×150mm produced by Wako Pure Chemical Industries, Ltd.)\n• Column Temperature: 40° C. • Mobile Phase: 20 mM KH2PO4·H3PO4 (pH 3.0): Methanol (57:43, v/v) • Flow Rate: 1.0 mL/min. • Detection Wavelength: 228 nm • Feed Amount: 20 μL"}
{"smiles": "COc1cc(CCC(=O)O)ccc1O", "note": "[compound (I), 3-(4-hydroxy-3-methoxyphenyl)propionic acid]", "values": [{"measurement": "IC50", "setting": "37° C., 45 minutes reaction, read-out: IC50 (concentration of the sample in the reaction solution exhibiting an ACE inhibition rate of 50%) (converted)", "result": 10.9, "unit": "mM"}, {"measurement": "ACE Inhibition Rate", "setting": "sample concentration 943.25 μg/mL", "result": 21.6, "unit": "%"}, {"measurement": "ACE Inhibition Rate", "setting": "sample concentration 1886.50 μg/mL", "result": 41.1, "unit": "%"}, {"measurement": "ACE Inhibition Rate", "setting": "sample concentration 3773.00 μg/mL", "result": 73.2, "unit": "%"}]}
